From patent US20040162467A1, “Non-invasive transudate extraction” (priority 2001, published 2004)

Experiments:
[1] = Other analytes: transdermal collection levels versus serum levels
[2] = Procalcitonin/TNF alpha and IL 6 (measure of bacterial sepsis): serum versus transdermal; type: in vivo
[3] = Serum, transdermal and saliva samples from human subjects before, during and after exercise; conditions: for Exudate: transdermal; for Saliva: 30-min saliva lag
Experimental: (§1) Sodium lauryl sulfate (40%) and either a commercial ultrasound conductive gel (Aquasonic, Parker Lab., NJ 07004, USA) or a 10% ethanol gel (the two gels were alternated in use) are employed. These gels are designated SLS-UG and SLS-EG respectively herein. Collected SLS-UG and SLS-EG are assayed as for blood. Saliva was divided into two samples. The first sample is stored at −20° C. and assayed as for blood. The second sample is assayed at the time of experimentation using the apparatus and immunosensors described above.
(§2) Student t tests, ANOVA or Wilcoxon test for paired samples are made as appropriate. Statistical significance is taken at P≦0.05 level. For analysis across the exercise stress, data is grouped into pre, during and post exercise values as actual sample times relative to the exercise for transdermal and blood obtained values. For pre, during and post exercise grouping of saliva samples, a 20-min lag was allowed relative to blood and transdermal values in sheep and a 30-min lag in human subjects.
Ten human volunteers (males aged 19-23, body weights 85-103 kg) were seated at 09:30 h. During the experiment, they were held at a room temperature of 20-22° C. An initial 1 min burst of ultrasound, as for the sheep (above), was made on the volar surface of the forearm, following application of SLS-EG mix. Ten minutes later, transdermal (electrosonophoresis) collection began from this site on this forearm, simultaneous to a venepuncture blood collection being made from the other. A saliva collection was then made, followed by a second, third and fourth saliva collection 20, 30 and 40 min after the blood sample. These measurements were repeated three times over 3 h (i.e. a total of three blood and transdermal samples and 12 saliva samples). In between each sampling series, subjects were allowed to walk around, eat lightly and drink water. Following this collection, the five volunteers exercised at moderate intensities, for 40 min (heart rates maintained in the range of 130-160 bpm) on a rowing machine, stopping briefly at 10, 20 and 30 min to give blood, transdermal and saliva samples. The subjects gave another set of samples at 40 min upon completion of rowing, then warmed down lightly with stretching exercises for a further 10 min and gave a further saliva sample at the end of this time. Two more saliva samples were collected at 60 and 70 min after exercise started. At the end of this time, sampling was repeated as above, prior to exercise, for a further 3 h. The entire procedure was repeated twice a week for 3 weeks (a total of six times). The distance rowed (m) represented the total work rate during the exercise.

[4] = Concentrations in transdermal exudate collected by different formats from sheep, versus serum
Experimental: as §1
Ten of these animals were used to develop the transdermal exudate collection technique. These 10 animals were penned as above, and a catheter inserted into the jugular vein using known techniques in the art. A mixture of sodium lauryl sulfate and either SLS-UG or SLS-EG was positioned onto the shaved area on the back of each animal. […] At the end of the hour, the remaining mix on the back was collected. The entire procedure was repeated three times. This mix was subject to assay (see below) for hormones and glucose content.
On the following day, one of the two gel mixes were rubbed on and, after 10 min, ultrasound (20 kHz, 10 W/cm^2, pulsed 5 s on/5 s off using an ITO Physiotherapy and rehabilitation unit, Tokyo 176-8605, Japan) applied for 1 min directly onto the mix. Ten minutes later, the mix was again collected and measured. This was then repeated with 2 min of the ultrasound application, and on a following day, the entire procedure repeated using the alternative gel mix on the shaved patch on the animal. Times greater than 2 min were not attempted due to potential risk of skin damage. Blood samples were collected at the time of ultrasound application and again at the time when the gel mix was also collected. The entire ultrasound procedure was then repeated on subsequent days with the addition of an application of a 9V electric field either side of the ultrasound head (in contact with skin).
On a separate day, in a further repeat of the above procedure; the collecting head (50) was positioned onto the ultrasound device. The ultrasound device was modified to ensure good coupling for use with the collecting head and delivery of needed parameters to the skin. The output of the device was reset to achieve the same energy and pulse delivery to the skin's surface as when the collecting head was not present, and the ultrasound device had been placed directly in contact with the gels (as described above). Three fluid flow rates into the collection chamber of the head were compared: 150, 300 and 600 μl/min. The effluent fluid was then assayed. On a final day, this was then repeated with the immunosensors positioned in the exit line from the chamber, with immunosensor measurement of the hormones made as has been described above.

[5] = Serum, transdermal and saliva samples from sheep before, during and after exercise; conditions: for Exudate: transdermal; for Saliva: 20-min saliva lag
Experimental: as §1, §2
In the remaining 10 sheep, experimentation took place on three separate days, each 3 days apart. On days of experimentation, animals were penned as above and the jugular vein of the animal was catheterised. Animals were left to rest for 50 min and then a single ultrasound application applied for 1 min as above. […] A series of electrosonophoresis collections were made concurrently with blood collection from the jugular vein, every 5 min for a further 1 h. Saliva samples were collected on every second blood sample (i.e. every 10 min). At completion of this time, a human shepherd, intermittently for 30 min, then ran the animals around a paddock. During this 30 min, each animal was briefly restrained manually and sampled on all three parameters every 10 min (i.e. three samples repeated three times). At the end of this period, animals were repenned and rested for 10 min, and a further saliva collection was made. Following this saliva collection for a further 1-h period, collection as above, prior to exercise, was repeated. In this manner for each animal, in each session, 27 blood and transdermal samples and 16 saliva samples were collected.

[6] = first group of subjects (no condition given)
[7] = sheep, SLS + 10% E + US 1 min + 9 V
[8] = sheep, SLS + 10% E + US 1 min + 9 V + Collection Head
[9] = second group of subjects (no condition given)
[10] = second group: females pregnant and lactating

Cn1c(=O)c2c(ncn2C)n(C)c1=O [Caffeine]
Serum levels [1, 6]: 1 to 5 mg/mL | Transdermal collection levels [1, 6]: 0.2 to 0.8 mg/mL | Serum levels ([1]; second group (loading)): 4 to 14 mg/mL (loading) | Transdermal collection levels ([1]; second group (loading)): 0.3 to 1.5 mg/mL

CCO [Ethanol, ethanol]
Serum levels [1, 6]: 0.01 to 0.9 mg/mL | Transdermal collection levels [1, 6]: 0.02 to 0.08 mg/mL | Serum levels ([1]; second group (loading)): 0.4 to 1.4 mg/mL (loading) | Transdermal collection levels ([1]; second group (loading)): 0.05 to 0.11 mg/mL

TNF alpha
TNF alpha Trandermal ([2]; subject number 20): 0.5 to 12 ng/mL | Transdermal ([2]; subject number 20): 0.03 to 1.4 ng/mL | TNF alpha Trandermal ([2]; subject number 30): 0.1 to 0.5 ng/mL | Transdermal ([2]; subject number 30): 0.005 to 0.01 ng/mL

Insulin: endogenous hormone analyte measured in serum and exudate
Serum ([3]; 0 min Exercise): 13.1 ± 3.0 μIU/ml | Exudate ([3]; 10 min Exercise): 0.90 ± 0.28 μIU/ml | Serum ([3]; 20 min Exercise): 6.3 ± 3.8 μIU/ml | Serum ([3]; 30 min Exercise): 5.4 ± 4.1 μIU/ml | Exudate ([3]; 30 min Exercise): 0.46 ± 0.21 μIU/ml | Exudate ([3]; 40 min Exercise): 0.57 ± 0.33 μIU/ml | Serum ([3]; Postexercise): 14.1 ± 5.5 μIU/ml | Exudate ([3]; Postexercise): 1.15 ± 0.48 μIU/ml | Exudate ([3]; Preexercise): 1.35 ± 0.90 μIU/ml | Serum ([4]; sheep, SLS + 10% E): 0.18 ± 0.09 ng/mL | Exudate ([4]; sheep, SLS + 10% E + US 1 min): 0.0004 ± 0.002 ng/mL | Serum ([4]; sheep, SLS + 10% E + US 1 min): 0.4 ± 0.15 ng/mL | Exudate [4, 7]: 0.0064 ± 0.0041 ng/mL | Serum [4, 7]: 0.21 ± 0.08 ng/mL | Exudate [4, 8]: 0.013 ± 0.006 ng/mL | Serum [4, 8]: 0.19 ± 0.11 ng/mL | Serum ([4]; sheep, SLS + UG): 0.2 ± 0.6 ng/mL | Recovery as % of serum levels ([4]; sheep, gel mix with addition of ultrasound application): 2% | Serum ([5]; 10 min Exercise): 2.1e-07 ± 7e-08 mg/L | Serum ([5]; 20 min Exercise): 1.2e-07 ± 5e-08 mg/L | Exudate ([5]; 20 min Exercise): 9e-09 ± 3e-09 mg/L | Exudate ([5]; 30 min Exercise): 8e-09 ± 4e-09 mg/L | Serum ([5]; Postexercise): 1.9e-07 ± 8e-08 mg/L | Exudate ([5]; Postexercise): 1.4e-08 ± 8e-09 mg/L | Exudate ([5]; Preexercise): 2.9e-08 ± 9e-09 mg/L

C[C@]12CC[C@@H]3c4ccc(O)cc4CC[C@H]3[C@@H]1CC[C@@H]2O [Estradiol, 17-β estradiol]
Saliva ([3]; 0 min Exercise): 0.76 ± 0.38 ng/L | Exudate ([3]; 0 min Exercise): 1.53 ± 0.59 ng/L | Saliva ([3]; 10 min Exercise): 0.75 ± 0.51 ng/L | Exudate ([3]; 10 min Exercise): 1.47 ± 0.94 ng/L | Saliva ([3]; 20 min Exercise): 0.83 ± 0.39 ng/L | Exudate ([3]; 20 min Exercise): 1.74 ± 0.54 ng/L | Saliva ([3]; 30 min Exercise): 0.85 ± 0.22 ng/L | Exudate ([3]; 30 min Exercise): 2.14 ± 0.86 ng/L | Saliva ([3]; 40 min Exercise): 0.68 ± 0.26 ng/L | Exudate ([3]; 40 min Exercise): 1.53 ± 0.51 ng/L | Saliva ([3]; Postexercise): 0.45 ± 0. ng/l | Exudate ([3]; Postexercise): 1.11 ± 0.55 ng/L | Saliva ([3]; Preexercise): 0.71 ± 0.25 ng/L | Exudate ([3]; Preexercise): 1.23 ± 0.46 ng/L | Recovery as % of serum levels ([4]; in vivo): 1% | Serum ([5]; 10 min Exercise): 1.5 ± 1.1 mg/L | Saliva ([5]; 10 min Exercise): 0.038 ± 0.011 mg/L | Exudate ([5]; 10 min Exercise): 0.14 ± 0.08 mg/L | Serum ([5]; 20 min Exercise): 1.3 ± 1.1 mg/L | Saliva ([5]; 20 min Exercise): 0.046 ± 0.009 mg/L | Exudate ([5]; 20 min Exercise): 0.12 ± 0.07 mg/L | Serum ([5]; 30 min Exercise): 1.5 ± 1.3 mg/L | Saliva ([5]; 30 min Exercise): 0.03 ± 0.012 mg/L | Exudate ([5]; 30 min Exercise): 0.14 ± 0.09 mg/L | Serum ([5]; Postexercise): 2.2 ± 1.1 mg/L | Saliva ([5]; Postexercise): 0.052 ± 0.021 mg/L | Exudate ([5]; Postexercise): 0.20 ± 0.06 mg/L | Serum ([5]; Preexercise): 1.4 ± 1.2 mg/L | Saliva ([5]; Preexercise): 0.05 ± 0.03 mg/L | Exudate ([5]; Preexercise): 0.12 ± 0.06 mg/L

IL 6: measure of bacterial sepsis
Serum ([2]; subject number 20): 0.3 to 11.5 ng/mL | Transdermal ([2]; subject number 20): 0.04 to 1.2 ng/mL | Serum ([2]; subject number 30): 0.1 to 0.3 ng/mL | Transdermal ([2]; subject number 30): 0.03 to 0.05 ng/mL

CC(=O)[C@H]1CC[C@H]2[C@@H]3CCC4=CC(=O)CC[C@]4(C)[C@H]3CC[C@]12C [Progesterone]
Serum levels [1, 6]: 1e-06 to 1.2e-05 mg/mL | Transdermal collection levels [1, 6]: 2e-07 to 1.1e-06 mg/mL | Serum levels [1, 9]: 8e-06 to 2.5e-05 mg/mL | Transdermal collection levels [1, 9]: 5e-07 to 2.8e-06 mg/mL

CN[C@@H](C)[C@@H](O)c1ccccc1 [Pseudoephedrine, reference compound]
Serum levels [1, 6]: 0.001 to 0.008 mg/mL | Transdermal collection levels [1, 6]: 0.0002 to 0.0008 mg/mL | Serum levels [1, 10]: 4-25 μg/ml females | Transdermal collection levels [1, 10]: 0.0004 to 0.0021 mg/mL

B1: Prolactin: endogenous hormone analyte (protein, UniProt P01236 29-227, looked up)
Prolactin: LPICPGGAARCQVTLRDLFDRAVVLSHYIHNLSSEMFSEFDKRYTHGRGFITKAINSCHTSSLATPEDKEQAQQMNQKDFLSLIVSILRSWNEPLYHLVTEVRGMQEAPEAILSKAVEIEEQTKRLLEGMELIVSQVHPETKENEIYPVWSGLPSLQMADEESRLSAYYNLLHCLRRDSHKIDNYLKLLKCRIIHNNNC
Serum levels [1, 6]: 1e-06 to 8e-06 mg/mL | Transdermal collection levels [1, 6]: 2e-08 to 8e-07 mg/mL | Serum levels [1, 10]: 4-100 ng/ml females | Transdermal collection levels [1, 10]: 4e-07 to 1e-05 mg/mL

B2: Procalcitonin: measure of bacterial sepsis (protein, UniProt P01258 26-141, looked up)
pro-form: APFRSALESSPADPATLSEDEARLLLAALVQDYVQMKASELEQEQEREGSSLDSPRSKRCGNLSTCMLGTYTQDFNKFHTFPQTAIGVGAPGKKRDMSSDLERDHRPHVSMPQNAN
modifications: pro-form
notes: measure of bacterial sepsis
Serum ([2]; subject number 20): 0.5 to 15 ng/mL | Transdermal ([2]; subject number 20): 0.04 to 1.7 ng/mL | Serum ([2]; subject number 30): 0.1 to 0.5 ng/mL | Transdermal ([2]; subject number 30): 0.02 to 0.05 ng/mL
